Reference: PubChem BioAssay AID1259407 (Chemical Carcinogenesis Research Information System (CCRIS), 2018)
Activity calls are given as the source filed them. The rule behind the calls is not given here.

Tested on: CCRIS mutagenicity, Ames/micronucleus/aberration tests
Experiment: CCRIS mutagenicity studies
Settings: Test System: AMES SALMONELLA TYPHIMURIUM, Method: PREINCUBATION

Measured: mutagenic call

N[C@@H](Cc1c[nH]c2ccccc12)C(=O)O
inactive: Strain/Indicator: TA97, Metabolic Activation: HAMSTER, LIVER, S-9, AROCLOR 1254 (10 OR 30%) inactive; negative | Strain/Indicator: TA97, Metabolic Activation: NONE inactive; negative | Strain/Indicator: TA97, Metabolic Activation: RAT, LIVER, S-9, AROCLOR 1254 (10 OR 30%) inactive; negative | Strain/Indicator: TA98, Metabolic Activation: HAMSTER, LIVER, S-9, AROCLOR 1254 (10 OR 30%) inactive; negative | Strain/Indicator: TA98, Metabolic Activation: NONE inactive; negative | Strain/Indicator: TA98, Metabolic Activation: RAT, LIVER, S-9, AROCLOR 1254 (10 OR 30%) inactive; negative | Strain/Indicator: TA100, Metabolic Activation: HAMSTER, LIVER, S-9, AROCLOR 1254 (10 OR 30%) inactive; negative | Strain/Indicator: TA100, Metabolic Activation: NONE inactive; negative | Strain/Indicator: TA100, Metabolic Activation: RAT, LIVER, S-9, AROCLOR 1254 (10 OR 30%) inactive; negative | Strain/Indicator: TA1535, Metabolic Activation: HAMSTER, LIVER, S-9, AROCLOR 1254 (10 OR 30%) inactive; negative | Strain/Indicator: TA1535, Metabolic Activation: NONE inactive; negative | Strain/Indicator: TA1535, Metabolic Activation: RAT, LIVER, S-9, AROCLOR 1254 (10 OR 30%) inactive; negative | Strain/Indicator: TA1537, Metabolic Activation: HAMSTER, LIVER, S-9, AROCLOR 1254 (30%) inactive; negative | Strain/Indicator: TA1537, Metabolic Activation: NONE inactive; negative | Strain/Indicator: TA1537, Metabolic Activation: RAT, LIVER, S-9, AROCLOR 1254 (30%) inactive; negative
